Measured values: patent US9828375B2, “4-position substituted pyrazolopyrimidine derivative, and use thereof in drug preparation” (Guangxi Wuzhou Pharmaceuticals (Group) Co., Ltd., priority 2012, dated 2017)
Read-outs that look alike come from different tables or passages of the source.

Experiments:
[1] = tested on: human cervical carcinoma cell line HELA; experiment: In vitro tumor cell proliferation inhibition (MTT): HELA; format: cell-based; conditions: 72 hours
Excerpt: (§1) The purpose of the experiment was to test the inhibition activity of the compounds of the invention for in vitro human tumor cell proliferation by the methyl thiazolyl tetrazolium (MTT) colorimetry.
(§2) Main reagents: RPMI-1640, fetal bovine serum, pancreatin, etc. were purchased from Gibco BRL Company (Invitrogen Corporation, USA) and IMDM medium that was purchased from American Type Culture Collection (ATCC). Methyl thiazolyl tetrazolium (MTT) and dimethyl sulfoxide (DMSO) were products from Sigma Company (USA). Pyrazolopyrimidine derivatives were composed by the inventor. During in vitro experiment, 100% DMSO was prepared into 10 mM storage solution, the solution was stored in a refrigerator at −20° C. for future use, and was diluted to the required concentration with complete culture solution before use.
(§3) Cell line and culture: Human leukemia cell line MV4-11, Jurkat, K562, human thyrophyma cell line TT, human gastric carcinoma cell line MKN-45, human malignant melanoma cell lines A375 and A875, human pancreatic carcinoma cell line panc-1, human cervical carcinoma cell line HELA, human colorectal carcinoma cell line HCT116, etc. were purchased from American type culture collection and were preserved by this laboratory. All leukemia cell lines (except MV4-11), gastric carcinoma cell lines and thyrophyma cell lines were cultured in RPMI-1640 complete medium containing 10% fetal bovine serum, 100 U/mL penicillin and 100 μg/mL streptomycin at 37° C. in 5% CO2. The remaining cell lines were cultured in DMEM complete medium containing 10% fetal bovine serum (containing 20% MV4-11 cell), 100 U/mL penicillin and 100 µg/mL streptomycin at 37° C. in 5% CO2.
(§4) Cell suspension with cell concentration of 1-2×10^4/mL was adjusted with the complete cell medium and inoculated in a 96-well plate, with each well filled with 200 μl cell suspension that was cultured overnight. On the next day, supernatant was sucked and abandoned (supernatant was sucked upon centrifugation of suspension cells), and then cells were processed with test compounds at gradient concentrations respectively. Meanwhile, a negative control group free from drug and a solvent control group with equal volume were set, and the DMSO concentration was 0.1%. Each dose group was provided with three wells and cultured at 37° C. in 5% CO2. After 72 hours, 20 μl 5 mg/mL MTT reagent was added to each well, and cultured for another 2 to 4 hours, the supernatant was abandoned; 150 μL DMSO was added to each well again, vibrated and mixed evenly for 15 minutes; the absorbance (A) values (proportional to living cell amount) were determined with a microplate reader (λ=570 nm) and averaged. […] Experiment was repeated for 3 times at least. Experimental data were expressed with means, data statistics were tested by t, and P<0.05 means that difference has a statistical significance. The cell proliferation inhibition effects of all compounds as follows are expressed by IC50 or inhibition rate.

[2] = tested on: human leukemia cell line MV4-11; experiment: In vitro tumor cell proliferation inhibition (MTT): MV4-11; format: cell-based
Excerpt: as §1, §2, §3, §4

[3] = tested on: human acute myeloid leukemia cell line MV4-11; experiment: In vivo anti-leukemia tumor experiment, NOD-SCID mice-subcutaneous MV4-11 model, tumors more than 2000 mm^3
Excerpt: The cell line used was human acute myeloid leukemia cell line MV4-11, with anti-leukemia drug Quizartinib (AC220) as a positive control.

[4] = tested on: human thyrophyma cell line TT; experiment: In vitro tumor cell proliferation inhibition (MTT): TT; format: cell-based
Excerpt: as §1, §2, §3, §4

[5] = tested on: human pancreatic carcinoma cell line panc-1; experiment: In vitro tumor cell proliferation inhibition (MTT): panc-1; format: cell-based
Excerpt: as §1, §2, §3, §4

[6] = tested on: human leukemia cell line K562; experiment: In vitro tumor cell proliferation inhibition (MTT): K562; format: cell-based
Excerpt: as §1, §2, §3, §4

[7] = tested on: human colorectal carcinoma cell line HCT116; experiment: In vitro tumor cell proliferation inhibition (MTT): HCT116; format: cell-based
Excerpt: as §1, §2, §3, §4

[8] = tested on: human leukemia cell line Jurkat; experiment: In vitro tumor cell proliferation inhibition (MTT): Jurkat; format: cell-based; conditions: 72 hours
Excerpt: as §1, §2, §3, §4

[9] = tested on: human malignant melanoma cell line A375; experiment: In vitro tumor cell proliferation inhibition (MTT): A375; format: cell-based
Excerpt: as §1, §2, §3, §4

[10] = tested on: human gastric carcinoma cell line MKN-45; experiment: In vitro tumor cell proliferation inhibition (MTT): MKN-45; format: cell-based
Excerpt: as §1, §2, §3, §4

[11] = tested on: human malignant melanoma cell line A875; experiment: In vitro tumor cell proliferation inhibition (MTT): A875; format: cell-based
Excerpt: as §1, §2, §3, §4

[12] = Homo sapiens, HCT-116, 72 hours

IC50 ([1]; Homo sapiens, HeLa) [µM]	IC50 ([2]; Homo sapiens, MV4-11, 72 h) [nM]	IC50 ([5]; Homo sapiens, PANC-1, 72 hours) [µM]	IC50 [7, 12] [µM]	IC50 ([8]; Homo sapiens, Jurkat) [µM]	IC50 ([9]; Homo sapiens, A-375, 72 hours) [µM]	IC50 ([10]; Homo sapiens, MKN-45, 72 hours) [µM]	IC50 ([11]; Homo sapiens, A875, 72 hours) [µM]	IC50 ([4]; Homo sapiens, 72 h) [µM]	IC50 ([6]; Homo sapiens, K562, 72 hours) [µM]	Structure (SMILES)	further results
< 50	0.00984	–	–	–	–	–	–	–	–	CC(C)(C)c1cc(NC(=O)Nc2ccc(Oc3ncnc4[nH]ncc34)c(F)c2)n(C(=O)O)n1 [4a-59]	–
–	–	< 50	–	< 50	< 50	< 50	< 50	< 50	–	CC(C)n1ncc2c(Oc3ccc(NC(=O)Nc4cc(C(C)(C)C)[nH]n4)cc3)ncnc21 [5a-7, 1-(5-tert-butyl-1H-pyrazol-3-yl)-3-(4-(1-isopropyl-(1H-pyrazolopyrimidine-4-yl)oxy)phenyl)urea]	–
< 50	28	–	–	< 50	–	< 50	–	4.13	–	CN(C)CCCn1ncc2c(Oc3ccc(NC(=O)Nc4cc(C(C)(C)C)on4)cc3)ncnc21 [5a-6]	–

Second part, the molecule before the results:

Structure (SMILES)	IC50 ([1]; Homo sapiens, HeLa) [µM]	IC50 ([2]; Homo sapiens, MV4-11, 72 h) [nM]	IC50 ([5]; Homo sapiens, PANC-1, 72 hours) [µM]	IC50 [7, 12] [µM]	IC50 ([8]; Homo sapiens, Jurkat) [µM]	IC50 ([9]; Homo sapiens, A-375, 72 hours) [µM]	IC50 ([10]; Homo sapiens, MKN-45, 72 hours) [µM]	IC50 ([11]; Homo sapiens, A875, 72 hours) [µM]	IC50 ([4]; Homo sapiens, 72 h) [µM]	IC50 ([6]; Homo sapiens, K562, 72 hours) [µM]	further results
CC(C)(C)c1cc(NC(=O)Nc2ccc(Oc3ncnc4[nH]ncc34)cc2)n(C(=O)O)n1 [4a-58]	< 50	0.0146	–	–	–	–	–	–	–	–	weight loss, rash, diarrhea and other adverse reactions during administration ([3]; NOD-SCID mice, 3 and 10 mg/kg q.d. oral): not found; in vivo tumor growth inhibition effect ([3]; daily dose of 3 mg/kg or above, oral, MV4-11 tumors more than 2000 mm^3 at start): completely inhibit tumor growth
O=C(Nc1cccc(Oc2ncnc3[nH]ncc23)c1)Nc1cccc(C(F)(F)F)c1 [4a-41]	–	–	–	–	–	–	–	–	–	–	IC50 ([4]; 72 hours): < 50 µM; IC50 [1]: < 50 µM; IC50 ([5]; 72 hours): < 50 µM; IC50 ([6]; 72 hours): < 50 µM; IC50 ([2]; 72 hours): 7820 nM; IC50 ([7]; 72 hours, read-out: Proliferation inhibition activity (IC50) HCT 116): < 50 µM; IC50 [8]: < 50 µM; IC50 ([9]; 72 hours): < 50 µM; IC50 ([10]; 72 hours): < 50 µM; IC50 ([11]; 72 hours): < 50 µM
Cn1nc(C(C)(C)C)cc1NC(=O)Nc1ccc(Oc2ncnc3[nH]ncc23)c(Cl)c1 [4a-32, 1-(4-((1H-pyrazolopyrimidine-4-yl)oxy)-3-chlorphenyl)-3-(3-tert-butyl-1-methylpyrazol-5-yl)urea]	–	1	3 to 10	< 50	3 to 10	3 to 10	3 to 10	3 to 10	–	–	–
O=C(Nc1ccc(C(F)(F)F)cc1)Nc1cccc(Oc2ncnc3[nH]ncc23)c1 [4a-43]	< 50	< 5000	< 50	< 50	< 50	< 50	< 50	< 50	4.57	< 50	–
O=C(Nc1ccc(Cl)c(C(F)(F)F)c1)Nc1ccc(Oc2ncnc3[nH]ncc23)cc1Cl [4a-55]	–	54.2	< 50	< 50	< 50	–	–	–	–	< 50	–
CC(C)(C)c1cc(NC(=O)Nc2ccc(Oc3ncnc4[nH]ncc34)c(Cl)c2)no1 [4a-46, 1-(4-((1H-pyrazolopyrimidine-4-yl)oxy)-3-chlorphenyl)-3-(5-tert-butylisoxazol-3-yl)urea]	< 50	3	1 to 3	< 10	1 to 3	< 10	< 50	< 10	1 to 3	3 to 10	–
